In the supplement of paper PMC8671470:

Columns and labels:
Experiment in all cases: area under dose-response curve (viability, 1 nM-10 uM) (fraction (0-1)); higher = more sensitive
Settings in all cases: 72 h
HL-60 = system: HL-60
In short: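 In 384-well plates, the full library was rescreened in duplicate on HL-60 cells in RPMI 1640 with 10% FBS, at 1–10,000 nM in five tenfold concentrations, for 72 h at 37 °C, 5% CO2. Each run also held DMSO or 100 nM of one of three metabolic inhibitors. Viability was measured by CellTiter-Glo and normalised to DMSO wells and to wells with proteasome inhibitor, present at 10 μM. Any area under the curve comes from four-parameter log-logistic fitting with drc and PharmacoGx.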

[1] = system: myeloid leukemia patient primary cells Pat.13
Description: (§1)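 AUC (0–1, higher = more sensitive) of the 5-point dose–response (1 nM–10 µM, 72 h, CellTiter-Glo) in primary AML/CML patient mononuclear cells. 0.030103 is the floor for inactive compounds.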

[2] = system: myeloid leukemia patient primary cells Pat.10
Description: as §1

[3] = system: myeloid leukemia patient primary cells Pat.2
Description: as §1

[4] = system: myeloid leukemia patient primary cells Pat.14
Description: as §1

[5] = system: myeloid leukemia patient primary cells Pat.15
Description: as §1

[6] = system: myeloid leukemia patient primary cells Pat.7
Description: as §1

[7] = system: myeloid leukemia patient primary cells Pat.8
Description: as §1

[8] = system: myeloid leukemia patient primary cells Pat.6
Description: as §1

[9] = system: myeloid leukemia patient primary cells Pat.11
Description: as §1

[10] = system: myeloid leukemia patient primary cells Pat.12
Description: as §1

[11] = system: myeloid leukemia patient primary cells Pat.4
Description: as §1

[12] = system: myeloid leukemia patient primary cells Pat.9
Description: as §1

[13] = system: myeloid leukemia patient primary cells Pat.1
Description: as §1

[14] = system: myeloid leukemia patient primary cells Pat.3
Description: as §1

[15] = system: myeloid leukemia patient primary cells Pat.5
Description: as §1

[16] = co-treatment: GSK2194069 100 nM
[17] = co-treatment: pictilisib 100 nM

Compound | area under dose-response curve (HL-60; co-treatment: AZD3965 100 nM) | area under dose-response curve (HL-60; co-treatment: DMSO vehicle) | area under dose-response curve (HL-60; [16]) | area under dose-response curve (HL-60; [17]) | also measured
CN(C)c1nc(O)c2[nH]cnc2n1 [2-Dimethylamino-6-hydroxypurine] | < 0.0301 | < 0.0301 | < 0.0301 | < 0.0301 | –
O=C(O)c1cc2sccc2[nH]1 [4H-thieno[3,2-b]pyrrole-5-carboxylic acid] | < 0.0301 | < 0.0301 | < 0.0301 | < 0.0301 | –
C1CCC(C(CC2CCCCN2)C2CCCCC2)CC1.O=C(O)/C=C\C(=O)O (configuration not stated) [Perhexiline] | 0.133 | 0.125 | 0.16 | 0.198 | –
O=C1Oc2ccccc2C(=O)C1CC1C(=O)Oc2ccccc2C1=O (configuration not stated) [Dicumarol] | < 0.0301 | < 0.0301 | < 0.0301 | < 0.0301 | –
CCOC(=O)N1c2ccc(C(F)(F)F)cc2[C@@H](N(Cc2cc(C(F)(F)F)cc(C(F)(F)F)c2)C(=O)OC)C[C@H]1CC [Torcetrapib] | < 0.0301 | < 0.0301 | < 0.0301 | < 0.0301 | area under dose-response curve [1]: 0.0668; area under dose-response curve [2]: 0.212; area under dose-response curve [3]: < 0.0301; area under dose-response curve [4]: 0.0394; area under dose-response curve [5]: < 0.0301; area under dose-response curve [6]: 0.197; area under dose-response curve [7]: < 0.0301; area under dose-response curve [8]: 0.0345; area under dose-response curve [9]: < 0.0301; area under dose-response curve [10]: < 0.0301; area under dose-response curve [11]: < 0.0301; area under dose-response curve [12]: 0.239; area under dose-response curve [13]: < 0.0301; area under dose-response curve [14]: 0.0719
Nc1ccn([C@@H]2O[C@H](CO)[C@@H](O)[C@@H]2O)c(=O)n1 [Cytarabine] | 0.242 | 0.214 | 0.216 | 0.329 | area under dose-response curve [1]: 0.188; area under dose-response curve [2]: 0.205; area under dose-response curve [3]: 0.077; area under dose-response curve [4]: 0.152; area under dose-response curve [5]: 0.109; area under dose-response curve [6]: 0.418; area under dose-response curve [7]: 0.0847; area under dose-response curve [8]: 0.0602; area under dose-response curve [9]: 0.0784; area under dose-response curve [10]: 0.0325; area under dose-response curve [11]: 0.142; area under dose-response curve [15]: 0.85; area under dose-response curve [12]: 0.719; area under dose-response curve [14]: 0.647
Cc1noc2c1-c1ccccc1C(c1ccc(Cl)cc1)=N[C@H]2CC(N)=O [CPI-0610] | 0.21 | 0.157 | 0.168 | 0.289 | area under dose-response curve [1]: 0.191; area under dose-response curve [2]: 0.458; area under dose-response curve [3]: 0.192; area under dose-response curve [5]: 0.423; area under dose-response curve [6]: 0.0768; area under dose-response curve [9]: 0.18; area under dose-response curve [11]: 0.423; area under dose-response curve [15]: 0.74; area under dose-response curve [12]: 0.34; area under dose-response curve [13]: 0.264; area under dose-response curve [14]: 0.378
O=C(c1ccc(OCCN2CCCCC2)cc1)c1c(-c2ccc(O)cc2)sc2cc(O)ccc12 [Raloxifene] | < 0.0301 | < 0.0301 | < 0.0301 | < 0.0301 | –
C=CCc1ccc2c(c1O)C(=O)c1ccccc1C2=O [R162] | < 0.0301 | < 0.0301 | < 0.0301 | < 0.0301 | –
NC(=O)c1ncn([C@@H]2O[C@H](CO)[C@@H](O)[C@H]2O)n1 [Ribavirin] | < 0.0301 | < 0.0301 | < 0.0301 | < 0.0301 | –
O=C(O)CC[C@H](NC(=O)c1ccc([N+](=O)[O-])cc1)C(=O)O [(S)-2-(4-Nitrobenzamido)pentanedioic acid] | < 0.0301 | < 0.0301 | < 0.0301 | < 0.0301 | –
Clc1ccc2c(c1Cl)CNCC2 | < 0.0301 | < 0.0301 | < 0.0301 | < 0.0301 | –
O=c1c2ccccc2[se]n1-c1ccccc1 [Ebselen] | < 0.0301 | < 0.0301 | < 0.0301 | < 0.0301 | –
CCOC(=O)[C@H]1O[C@@H]1C(=O)N[C@@H](CC(C)C)C(=O)NCCC(C)C [Aloxistatin] | < 0.0301 | < 0.0301 | < 0.0301 | < 0.0301 | –
Clc1ccc(COC(Cn2ccnc2)c2ccc(Cl)cc2Cl)cc1 (configuration not stated) [Econazole] | – | – | – | – | area under dose-response curve [2]: 0.277; area under dose-response curve [3]: < 0.0301; area under dose-response curve [4]: 0.138; area under dose-response curve [5]: < 0.0301; area under dose-response curve [6]: 0.202; area under dose-response curve [7]: < 0.0301; area under dose-response curve [8]: 0.0776; area under dose-response curve [9]: < 0.0301; area under dose-response curve [10]: < 0.0301; area under dose-response curve [11]: < 0.0301; area under dose-response curve [15]: 0.499; area under dose-response curve [12]: 0.439; area under dose-response curve [13]: 0.0311; area under dose-response curve [14]: 0.173
Oc1cc(Cl)ccc1Oc1ccc(Cl)cc1Cl [Triclosan] | < 0.0301 | < 0.0301 | < 0.0301 | < 0.0301 | –
CC(C)Cc1sc(N)nc1-c1ccc(P(=O)(O)O)o1 | < 0.0301 | < 0.0301 | < 0.0301 | < 0.0301 | –
O=C(O)c1nn(Cc2ccc(Cl)cc2Cl)c2ccccc12 [Lonidamine] | < 0.0301 | < 0.0301 | < 0.0301 | < 0.0301 | –
CCOc1ccc(Cc2cc([C@@H]3O[C@H](CO)[C@@H](O)[C@H](O)[C@H]3O)ccc2Cl)cc1 [Dapagliflozin] | < 0.0301 | < 0.0301 | < 0.0301 | < 0.0301 | –
C#Cc1cnc(O)nc1O [Eniluracil] | < 0.0301 | < 0.0301 | < 0.0301 | < 0.0301 | –
O=C(O)C(Cl)Cl [Dichloroacetate] | < 0.0301 | < 0.0301 | < 0.0301 | < 0.0301 | –
CCCc1nn(C)c2c(O)nc(-c3cc(S(=O)(=O)N4CCN(C)CC4)ccc3OCC)nc12 [Sildenafil] | < 0.0301 | < 0.0301 | < 0.0301 | < 0.0301 | –
